Broadly, the EC50 is the midpoint of the concentration-response curve. The low end stands for an effect from little substance, the high end for a need for much substance.

This note sets out measurements from paper PMC5966403 (2018).

Assay [1] relates to TSL2 (RNA, hairpin) AUUCCUUAAAUUAAGGAGU
The assay is described as follows: TO-PRO-1 fluorescence displacement. Particulars: Na+ (185 mM NaCl, 8 mM Na2HPO4); pH 7, 0.1 mM EDTA, 40 μg/mL BSA; 0.5 μM RNA; TO-PRO-1 (1 μM) displaced.

Assay [2] has the same test system. As to the kind of experiment: RiboGreen fluorescence displacement. The settings on record: Na+ (185 mM NaCl, 8 mM Na2HPO4); RiboGreen (300 nM) displaced.
For assay [3] the test system is unchanged. As to the kind of experiment: NMR (TOCSY) chemical-shift perturbation. Particulars: 40–50 μM RNA, 20 equivalents PK4C9; shifts at U2 and U19.

Regarding `N=C(N)c1ccc(Nc2ccc(-c3cc4ccc(C(=N)N)cc4[nH]3)cc2)cc1`, in assay [1], the EC50 stood at 4.5 µM. In the case of `O=C(c1cnc(C(=O)c2c[nH]c3ccccc23)[nH]1)c1c[nH]c2ccccc12`, the EC50 in assay [1] was found to be 85.9 µM. For `O=C(c1cnc(C(=O)c2c[nH]c3cc(O)ccc23)[nH]1)c1c[nH]c2ccccc12`, the EC50 in assay [1] was found to be 16 µM. Further, the binding result in assay [2] and in assay [3] was “yes” throughout.
